Laboratory results as given in ChEMBL document CHEMBL5325445, “Discovery and development of small-molecule heparanase inhibitors” (Bioorg Med Chem, 2023).
pIC50: −log10 of the molar value.

System: HepG2
Experiment: Antiproliferative activity against human HepG2 cells assessed as reduction in cell viability measured after 24 hrs by MTT assay
Type: functional, cell-based
Details: HepG2, 24 h

Structure (SMILES)	pIC50
Oc1c(I)cc(I)cc1-c1nn2c(-c3ccccc3)nnc2s1	4.92
Oc1ccc(I)cc1-c1nn2c(-c3ccccc3)nnc2s1	4.74
O=C(Nn1c(-c2ccccc2)n[nH]c1=S)c1cc(I)cc(I)c1O	4.83

System: not listed separately
Experiment: Antiproliferative activity against mouse Lewis lung carcinoma cells assessed as reduction in cell viability measured after 24 hrs by MTT assay
Type: functional, cell-based
Details: not given

Structure (SMILES)	pIC50
Oc1c(I)cc(I)cc1-c1nn2c(-c3ccccc3)nnc2s1	5.08
Oc1ccc(I)cc1-c1nn2c(-c3ccccc3)nnc2s1	4.78
O=C(Nn1c(-c2ccccc2)n[nH]c1=S)c1cc(I)cc(I)c1O	4.93

System: not listed separately
Experiment: Anti-angiogenic activity in human endothelial cells assessed as reduction in cell growth
Details: not given

Structure (SMILES)	pIC50
COc1ccc(N2C(=O)c3ccc(C(=O)O)cc3C2=O)cc1-c1nc2cc(-c3cc(F)cc(F)c3)ccc2o1	> 5.00
CCCNc1ccc(N2C(=O)c3ccc(C(=O)O)cc3C2=O)cc1-c1nc2cc(-c3ccc(Cl)cc3)ccc2o1	6.70
COc1ccc(-c2nc3cc(-c4ccc(F)cc4)ccc3o2)cc1N1C(=O)c2ccc(C(=O)O)cc2C1=O	> 5.00
COc1ccc(N2C(=O)c3ccc(C(=O)O)cc3C2=O)cc1-c1nc2cc(-c3ccc4c(c3)OCO4)ccc2o1	6.12
COCCOc1ccc(-c2nc3cc(-c4ccccc4)ccc3o2)cc1N1C(=O)c2ccc(C(=O)O)cc2C1=O	5.30
CCCNc1ccc(N2C(=O)c3ccc(C(=O)O)cc3C2=O)cc1-c1nc2cc(-c3ccc(OC(F)(F)F)cc3)ccc2o1	6.70
CCCNc1ccc(N2C(=O)c3ccc(C(=O)O)cc3C2=O)cc1-c1nc2cc(-c3ccc(C(F)(F)F)cc3)ccc2o1	6.70
CCCNc1ccc(N2C(=O)c3ccc(C(=O)O)cc3C2=O)cc1-c1nc2cc(-c3ccc(F)cc3)ccc2o1	6.70
CCCNc1ccc(N2C(=O)c3ccc(C(=O)O)cc3C2=O)cc1-c1nc2cc(-c3cccc(Cl)c3)ccc2o1	6.70
CCCNc1ccc(N2C(=O)c3ccc(C(=O)O)cc3C2=O)cc1-c1nc2cc(-c3ccc(F)c(Cl)c3)ccc2o1	6.70
COc1ccc(-c2nc3cc(-c4cccc(-c5ccccc5)c4)ccc3o2)cc1N1C(=O)c2ccc(C(=O)O)cc2C1=O	6.00
O=C(O)c1ccc2c(c1)C(=O)N(c1cccc(-c3nc4cc(-c5cccc(-c6ccccc6)c5)ccc4o3)c1)C2=O	6.00

Molecular target: T1, Heparanase (Homo sapiens, UniProt Q9Y251)
T1 sequence (Q9Y251 whole entry): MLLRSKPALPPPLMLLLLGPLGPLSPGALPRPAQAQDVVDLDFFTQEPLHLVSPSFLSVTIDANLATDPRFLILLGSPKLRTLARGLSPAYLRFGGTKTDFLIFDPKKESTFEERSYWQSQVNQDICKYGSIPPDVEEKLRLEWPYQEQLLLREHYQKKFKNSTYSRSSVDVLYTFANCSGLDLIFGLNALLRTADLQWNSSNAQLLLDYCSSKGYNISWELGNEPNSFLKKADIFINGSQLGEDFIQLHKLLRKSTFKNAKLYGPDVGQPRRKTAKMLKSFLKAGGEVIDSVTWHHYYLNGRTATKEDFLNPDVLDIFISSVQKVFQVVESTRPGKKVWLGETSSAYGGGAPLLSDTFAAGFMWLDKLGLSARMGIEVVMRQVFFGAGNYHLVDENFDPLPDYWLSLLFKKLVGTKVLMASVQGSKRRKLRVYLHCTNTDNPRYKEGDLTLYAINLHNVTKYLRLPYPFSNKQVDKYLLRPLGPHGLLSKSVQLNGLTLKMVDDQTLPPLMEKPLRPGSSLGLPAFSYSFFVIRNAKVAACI
Experiment: Inhibition of heparanase (unknown origin)
Details: not given

Structure (SMILES)	pIC50
COc1cccc(-n2nc(C(=O)O)cc2-c2ccc(C3CCCCC3)c(Cl)c2)c1	5.00

System: HT-1080
Experiment: Inhibition of cell invasion in human HT-1080 cells
Details: not given

Structure (SMILES)	pIC50
CCCCCCCCCCCCCCCC(=O)C1=C(OCc2ccccc2)[C@@H](CO)OC1=O	5.82

System: U2OS
Experiment: Anti-invasive activity against human U2OS cells assessed as cell invasion at 2.5 uM
Type: functional
Details: not given

Structure (SMILES)	inhibition at 2.5 µM
O=C(Nc1ccc(-c2nc3ccccc3[nH]2)cc1)c1ccc(C(=O)Nc2ccc(-c3nc4ccccc4[nH]3)cc2)cc1	80%
O=C(O)c1ccc2c(c1)C(=O)N(c1ccc(NC(=O)c3cccc(C(=O)Nc4ccc(N5C(=O)c6ccc(C(=O)O)cc6C5=O)cc4Cl)c3)c(Cl)c1)C2=O	75%
